Assay results taken from patent US20230175195A1, “PLASMA COATING TREATMENT METHOD FOR INHIBITING BIOLOGICAL PATHOGEN TRANSFER” (MOLECULAR PLASMA GROUP S.A., priority 2020, published 2023).
Where two headings read alike, the source gives them in different places.

Experiments:
[1] = system: Escherichia coli (gram-negative); assay: Quantitative antibacterial activity test of treated materials (OECD guideline, ISO 22197/20743), gram-negative
Description: The coatings in the tests described below were obtained using a PlasmaSpot® by Molecular Plasma Technology, using a power around 100 W (but any power between 60-450 W can work), a voltage about 15 kV (but any voltage between 5 and 25 kV seems to work), a frequency about 60 kHz, plasma gas N2, (but also N2, He, Ar, even air and mixtures thereof can be used), a plasma gas flowabout 100 slm (but any plasma flow between 10 and 250 slm can be used), the precursor injected as aerosol (but a liquid precursor, gas precursor, a mixture of liquids, solutions, dispersions, etc . . . also work well), a working distance about 8 mm (but any working distance between 1 and 20 mm seems to work), a temperature about room temperature.
Further tests were performed to illustrate antibacterial behaviour. Tests were performed on a polypropylene nonwoven (PPNW) substrate having a density of 25 g/m^2, which is commonly used as the outer layer of a surgical face mask, and on the synthetic textile Tyvek®.
Droplets containing bacterial suspension are placed on the treated material and evaluated after an incubation period. After the incubation, the bacteria are recovered from the tested material by washing it with a recovery medium. This recovery medium is then analysed for presence of the pathogen by incubation of the recovery medium on agar plates.
The bacteriae used in the testing were Staphylococcus aureus (gram-positive) and Escherichia coli (gram-negative).
The test is based on the international standard given by OECD guidelines for testing of chemicals based on ISO standards 22197/20743: Quantitative method for evaluating antibacterial activity of porous and non-porous antibacterial treated materials.

[2] = system: Staphylococcus aureus (gram-positive); assay: Quantitative antibacterial activity test of treated materials (OECD guideline, ISO 22197/20743), gram-positive; assay type: cell-based, S. aureus ATCC6538P
Bacteriophage MS2 = assay: Viral load reduction test per ASTM E2721-16 with MS2 instead of Influenza A, on plasma-coated substrate; assay type: cell-based
[3] = plasma coating on PPNW substrate (polypropylene nonwoven, 25 g/m^2)
[4] = plasma coating on synthetic textile substrate (Tyvek)
[5] = plasma coating of the precursor on Tyvek substrate, MS2 phages, LOD = limit of detection

Molecule	% Gram− bacteria reduced [1, 3] [%]	Gram− log reduction [1, 3]	% Gram− bacteria reduced [1, 4] [%]	Gram− log reduction [1, 4]	% Gram+ bacteria reduced [2, 3] [%]	Gram+ log reduction [2, 3]	% Gram+ bacteria reduced [2, 4] [%]	Gram+ log reduction [2, 4]	LOG Reduction (Bacteriophage MS2; [5])	LOG Reduction (Bacteriophage MS2)
CCCCCCCCCCCCCCCCCC[N+](C)(C)CCC[Si](OC)(OC)OC.[Cl-] [SiQAM, Dimethyloctadecyl[3-(trimethoxysilyl)propyl] ammonium chloride]	>99.9996	>5.4	>98.7	>1.9	>99.994	>4.2	>99.95	>3.3	1.56	–
Citric Acid	>99.999	>5.0	97.5	1.6	>99.995	>4.3	>99.98	>3.8	>5.0 (LOD)	–
PVP-I2 Poly(vinylpyrrolidone)-Iodine complex [reference compound]	>99.9996	>5.4	–	–	>99.994	>4.2	–	–	–	–
Benzalkonium chloride	99.9996	5.4	98.7	1.9	>99.994	>4.2	>99.5	>3.3	–	>3.8 (LOD)
